Results on three compounds are retold here after patent publication US6284461A, “Use of inhibitors in reporter assays” (priority 1998, dated 2001).

Entries after “also recorded” stand apart in the source; their conditions may differ.

The target in assay [1] is T1, cytosolic beta-lactamase reporter enzyme (Escherichia coli, UniProt P62593).
T1 construct: CCF2/AM read-out
As to the kind of experiment: Inhibition of cytosolic beta-lactamase reporter activity in live Jurkat cells, CMV promoter (Example II). To be noted: 300 μM inhibitor, one hour at 37° C. Type of assay: cell-based. The procedure:
(§1) One day before the assay, CHO cells (an adherent cell line) expressing a cytosolic beta-lactamase reporter gene (WO 96/30540 to Tsien et al., published Oct. 3, 1996)) under control of a G-protein coupled receptor (GPCR) were plated in six clear-bottom 96-well microtiter plates at 75% confluency. The cells in half of the wells were stimulated overnight with agonist to the GPCR. Thus, these cells expressed high levels of the reporter enzyme encoded by the reporter gene. The other half of the cells were maintained without agonist in media having dialyzed fetal calf serum. This population is representative of cells with only background levels of beta-lactamase expression. […] After thirty minutes of incubation, the fluorescence from the wells was determined using a microtiter plate fluorimeter with excitation at 395/20nm and emission at 460/40nm and 530/30nm. The raw fluorescence emission values were corrected for the signal from wells without cells. […]
Jurkat cells (a non-adherent cell line) expressing a cytosolic beta-lactamase reporter enzyme (WO 96/30540 to Tsien et al., published Oct. 3, 1996) under the control of the constitutively active cytomegalovirus early promoter (CMV promoter) were incubated with three inhibitors: clavulanic acid, imipenem and HOB-1-70. […] Cells were treated for one hour at 37° C., after which beta-lactamase reporter activity was assessed as in Example I (FIG. 2).

In assay [2] the test system is background beta-lactamase activity (cytosolic). Put plainly: Background beta-lactamase activity in CHO reporter cells after blocking enzyme synthesis (Example I). Type of assay: cell-based. To be noted: 40 μg/ml cycloheximide, low and high expressing CHO cells, even after 5 hours. The procedure: as §1, with “expression. These unstimulated cells expressed the reporter enzyme at levels lower than in the stimulated cells. After sixteen hours, the media was removed, the stimulated cells and the unstimulated cells were washed once by replacing the culture media by aspiration with an equal volume of phosphate buffered saline and then treated with 40 μg/ml cycloheximide in RPMI medium 1640 with 0.1% bovine serum albumin (BSA).” for “expression.”

The subject of assay [3] is cytosolic beta-lactamase reporter. Put plainly: Wash-out of inhibitor from Jurkat C2 cells (M1 receptor, NF-AT beta-lactamase reporter) (Example III). The format is cell-based. The procedure:
as §1
These studies used a Jurkat cell clone (referred to as "C2 cells" ) containing the M1 -receptor and a cytosolic beta-lactamase reporter gene (WO 96/30540 to Tsien et al., published Oct. 3, 1996)) regulated by a NF-AT response element. […] Higher beta-lactamase activity was detected in the cells as the time after the inhibitor was washed out of the cells increased.

Assay [4] relates to beta-lactamase. The note with it: cited from earlier work.
Assay [5] deals with T1, cytosolic beta-lactamase reporter enzyme. As to the kind of experiment: Agonist titration in CHO GPCR reporter cells with or without inhibitor pretreatment (Example VI). Type of assay: cell-based.
Assay [6] addresses T2, cytosolic beta-lactamase (Escherichia coli, UniProt P62593).
T2 construct: CCF2/AM read-out
Put plainly: Inhibitor added together with CCF2/AM in CHO nuclear receptor beta-lactamase reporter cells (Example IX). Type of assay: cell-based.

For assay [7], the system named is cytosolic beta-lactamase activity. Put plainly: Background versus de novo beta-lactamase activity in CHO GPCR reporter cells after inhibitor pretreatment (Example V). The format is cell-based. The note with it: 300 μM clavulanic acid sixteen hours, washed, unstimulated, three hours. The procedure:
as §1, with “expression. These unstimulated cells expressed the reporter enzyme at levels lower than in the stimulated cells. After sixteen hours, the media was removed, the stimulated cells and the unstimulated cells were washed once by replacing the culture media by […] (BSA). Because CHO cells are adherent, aspiration is the preferred method of removing culture media, which is then replaced with wash media or wash solution.” for “expression.”

In assay [8] the target is T1, cytosolic beta-lactamase reporter enzyme. As to the kind of experiment: Irreversibility of intracellular beta-lactamase inhibition in CHO GPCR reporter cells (Example IV). To be noted: washed. Type of assay: cell-based.

T1 sequence (P62593 24-286 limits assumed): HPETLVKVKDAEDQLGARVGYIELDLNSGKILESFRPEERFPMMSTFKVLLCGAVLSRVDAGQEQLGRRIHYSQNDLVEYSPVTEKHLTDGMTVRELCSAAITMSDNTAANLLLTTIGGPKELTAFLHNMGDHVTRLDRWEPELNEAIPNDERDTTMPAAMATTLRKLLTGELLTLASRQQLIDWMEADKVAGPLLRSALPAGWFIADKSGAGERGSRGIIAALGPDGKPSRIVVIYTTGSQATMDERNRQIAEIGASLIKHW
T2 sequence (P62593 24-286 limits assumed): as above

Consider `C[C@@H](O)[C@H]1C(=O)N2C(C(=O)O)=C(SCCN=CN)C[C@H]12` [imipenem], for which, in assay [1], the “reduction of cytosolic beta-lactamase reporter activity” value is “did not have a similar effect”.
For `C[C@@H]1C[C@@H]([C@H](O)CC2CC(=O)NC(=O)C2)C(=O)[C@@H](C)C1` [cycloheximide], in assay [2], the “ratio values (460/40nm over 530/30nm emission)” value is listed as “above 0.2”.
As for `O=C(O)[C@H]1/C(=C/CO)O[C@@H]2CC(=O)N21` [clavulanic acid], the “beta-lactamase activity, no-wash control” value in assay [3] (100 microM clavulanic acid for sixteen hours, inhibitor present throughout, with or without 100 microM carbacol) was “beta-lactamase activity, both residual and synthesized de novo, was reduced”. Moreover, the “de novo beta-lactamase activity after wash-out of inhibitor” value in assay [3] (100 microM clavulanic acid sixteen hours, washed once, 0-3 hours after wash, then 100 microM carbacol for three hours) is reported as “Stimulation of cells, even immediately after the wash, results in de novo synthesis of beta-lactamase that can be detected”. In addition, in assay [1], the “reduction of cytosolic beta-lactamase reporter activity” value is “reduced the reduced beta-lactamase activity in these cells to levels found in cells that do not have the reporter; also recorded: essentially reduced reporter beta-lactamase activity to values found for a naive Jurkat population”. In addition, the “molecules of inhibitor hydrolyzed on average before the beta-lactamase is irreversibly inactivated” value in assay [4] (beta-lactamase used in the cell based assays, source not given) was “about 100 molecules”. In addition, the “reversibility of beta-lactamase inhibition” value in assay [4] (literature (Bulychev et al. 1995; Knowles 1985)) was “irreversible”. Moreover, the “background beta-lactamase activity in agonist assay” value in assay [5] (CHO cells pretreated with 300 μM clavulanic acid sixteen hours, washed, three hours agonist) was “much lower”. In addition, the “signal-to-noise ratio of agonist assay” value in assay [5] (cells pretreated with clavulanic acid versus untreated) is “the signal-to-noise ratio was improved”. Moreover, in assay [6] (16.7 microμ clavulanic acid present), the “ratio of fluorescence from stimulated cells over unstimulated cells” value turned out to be 32 fold. For the same compound, in assay [6] (16.7 microμ clavulanic acid versus absence of inhibitor), the “improvement in signal-to-noise ratio” value is “almost a three-fold improvement”. Also, the “background (unstimulated) ratio levels” value in assay [6] (CHO nuclear receptor reporter cells, 16.7 microμ clavulanic acid present during CCF2/AM loading) came to 0.090±0.015. For the same compound, in assay [6] (agonist-stimulated CHO cells, 16.7 microμ clavulanic acid present during CCF2/AM loading), the “beta-lactamase activity in stimulated cells” value was “did not change significantly”. The “background beta-lactamase reporter activity after pretreatment” value in assay [7] is given as “effective means of lowering the background beta-lactamase reporter activity; also recorded: readily inhibited”. The “persistence of inhibition of intracellular beta-lactamase reporter enzyme” value in assay [8] (300 μM clavulanic acid pretreatment, cycloheximide) is “irreversibly inhibited; also recorded: remains inhibited for at least five hours”. In addition, the “ratio values (460/40nm over 530/30nm emission)” value in assay [8] (300 μM clavulanic acid sixteen hours, 40 μg/ml cycloheximide, low and high expressing cells, even after five hours) is “about 0.2”.
